Measurements as given in US20220000854A1 (CHASE THERAPEUTICS CORPORATION, priority 2018, published 2022).

Legend:
[1] = co-treatment with pramipexole; cited from earlier work
[2] = test system: Caenorhabditis elegans; settings: in vivo; cited from earlier work
[3] = in vivo; cited from earlier work
[4] = in vivo; cited from earlier work; remark: listed apart in the source
[5] = large doses, acute systemic administration; cited from earlier work
[6] = Period 2 (with oral domperidone) versus Period 1 (pramipexole alone)
Text: The study is single center, single-blind study.
To be enrolled in the study, participants must meet the following inclusion/exclusion key criteria:
History of drug or other significant allergy. • 5.

[7] = 4.5 mg/day with levodopa, entcapone, selegiline and zonisamide; after switch from immediate-release to extended-release; cited from earlier work
[8] = doses approved for motor symptoms of PD; 535 PD patients; cited from earlier work
[9] = target: alpha-synuclein (Homo sapiens, UniProt P37840); settings: cited from earlier work
[10] = test system: human neuroblastoma SH-SY5Y cells; settings: cited from earlier work
[11] = target: human wild-type alpha-synuclein (Homo sapiens, UniProt P37840); settings: in vitro, by H2O2 plus cytochrome c; cited from earlier work
[12] = test system: dopaminergic neurons; settings: mouse PD model, cited from earlier work
[13] = 5 mg/day of pramipexole, cited from earlier work
[14] = test system: brain cell systems; settings: cited from earlier work
[15] = test system: 6-OHDA-lesioned cell model; settings: cited from earlier work
[16] = 25 mg-50 mg, alone or with levodopa; cited from earlier work
[17] = test system: rat corticostriatal slices; settings: 0.3, 1, 3 and 10 μM; cited from earlier work
[18] = target: T1, A53T α-synuclein (Homo sapiens, UniProt P37840, A53T); settings: oral 40 mg/kg/day, cited from earlier work
T1 construct: host or cells: rat brain in vivo, transduced with a viral vector

[19] = test system: nigral dopamine neurons; settings: 6-OHDA mice, injection of 30 mg/kg; cited from earlier work
[20] = test system: nigrostriatal dopaminergic neurons; settings: chronic administration, compared with saline; cited from earlier work
[21] = test system: nigral TH-positive neurons; settings: MPTP-treated mice, 20 mg/kg; cited from earlier work

**Q.** Which “activity of pramipexole in the forced swimming test” value [1] does the source give for `CNCCC(Oc1ccc(C(F)(F)F)cc1)c1ccccc1` (stereo not drawn) [fluoxetine, 1-methylamino-3-phenyl-3-[4-(trifluoromethyl)phenoxy]propane] here?
**A.** The value was “enhance the activity of pramipexole”.

**Q.** What about the amyloid-β-induced paralysis [2] of the same molecule?
**A.** Its amyloid-β-induced paralysis is “significantly delay amyloid-β-induced paralysis”.

**Q.** What about the 6-OHDA induced damage [3] of the same molecule?
**A.** Its 6-OHDA induced damage is “protect against”.

**Q.** And the MPTP induced damage [4]?
**A.** The MPTP induced damage was “protect against”.

**Q.** And the “extracellular concentrations of norepinephrine and dopamine” value [5]?
**A.** The value was “significant increase in extracellular concentrations of norepinephrine and dopamine”.

**Q.** For `CCCN[C@H]1CCc2nc(N)sc2C1` [pramipexole, (S)-6-propylamino-4,5,6,7-tetrahydro-1,3-benzothiazole-2-amine], which “Maximum Tolerated Dose (MTD) of pramipexole” value [6] is on record?
**A.** The value was “higher than MTD during Period 1”.

**Q.** And the hallucinations [7]?
**A.** The hallucinations was “induce hallucinations”.

**Q.** And the “neuroprotective (disease modifying) activity” value [8]?
**A.** Its value is “failed to evidence neuroprotective (i.e., disease modifying) activity”.

**Q.** What about the “synuclein oligomer formation / aggregation in vitro” value [9] of the same molecule?
**A.** Its value is “diminishes synuclein oligomer formation in vitro”.

**Q.** And the aggregation of alpha-synuclein [10]?
**A.** Its aggregation of alpha-synuclein is “inhibit the aggregation of alpha-synuclein”.

**Q.** And the “oligomerization of human wild-type alpha-synuclein” value [11]?
**A.** The value was “decreases the in vitro oligomerization of human wild-type alpha-synuclein”.

**Q.** And the immunoreactivity for alpha-synuclein ([12]; rotenone)?
**A.** Its immunoreactivity for alpha-synuclein is “reducing immunoreactivity for alpha-synuclein”.

**Q.** And the “toxic effects of rotenone on dopaminergic neurons” value [12]?
**A.** Its value is “inhibits the toxic effects of rotenone on dopaminergic neurons”.

**Q.** What about the patients with nausea [13] of the same molecule?
**A.** Its patients with nausea is 76%.

**Q.** What about the patients with vomiting [13] of the same molecule?
**A.** Its patients with vomiting is 39%.

**Q.** And the “patients not able to complete the study” value ([13]; presumably intolerable GI adverse events)?
**A.** The value was 36%.

**Q.** With `CCC(C)(C)C(=O)O[C@H]1C[C@@H](C)C=C2C=C[C@H](C)[C@H](CC[C@@H]3C[C@@H](O)CC(=O)O3)[C@H]21` [simvastatin, (1S,3R,7S,8S,8aR)-8-{2-[(2R,4R)-4-hydroxy-6-oxotetrahydro-2H-pyran-2-yl]ethyl}-3,7-dimethyl-1,2,3,7,8,8a-hexahydronaphthalen-1-yl 2,2-dimethylbutanoate] as the molecule, how does the “protection against 6-hydroxydopamine (6-OHDA)” value [14] read?
**A.** The value was “protect against the deleterious consequences of the dopaminergic neurotoxin 6-hydroxydopamine”.

**Q.** And the “neuroprotection against dopaminergic neurodegeneration” value [15]?
**A.** Its value is “robust neuroprotection against dopaminergic neurodegeneration”.

**Q.** Which “synuclein oligomer formation / aggregation in vitro” value [9] does the source give for `NS(=O)(=O)Cc1noc2ccccc12` [zonisamide, benzo[d]isoxazol-3-ylmethanesulfonamide] here?
**A.** The value was “inhibits the in vitro oligomerization and aggregation of alpha-synuclein”.

**Q.** And the motor symptoms [16]?
**A.** The motor symptoms was “improve motor symptoms”.

**Q.** And the “rotenone-induced toxicity (loss of corticostriatal field potential amplitude)” value [17]?
**A.** Its value is “significantly reduced the rotenone-induced toxicity”.

**Q.** What about the “survival of nigrostriatal dopamine neurons” value [18] of the same molecule?
**A.** Its value is “no impact on the survival of nigrostriatal dopamine neurons”.

**Q.** What about the pace of degeneration ([18]; four weeks after viral vector injection, versus control group) of the same molecule?
**A.** Its pace of degeneration is “significantly delayed the pace of degeneration”.

**Q.** What about the “loss of nigral dopamine neurons” value [19] of the same molecule?
**A.** Its value is “prevented the loss of nigral dopamine neurons”.

**Q.** What about the “survival of nigrostriatal dopaminergic neurons” value [20] of the same molecule?
**A.** Its value is “improved the survival of nigrostriatal dopaminergic neurons”.

**Q.** And the “loss of nigral TH-positive neurons” value [21]?
**A.** Its value is “reduced the loss of nigral TH-positive neurons”.

**Q.** What about the striatal dopamine depletion [21] of the same molecule?
**A.** Its striatal dopamine depletion is “attenuating the associated striatal dopamine depletion”.
